“Also recorded” adds a separate entry of the source.

The source of these data is patent US5854004A, “Process for screening substances capable of modulating a receptor-dependent cellular signal transmission path” (Boehringer Ingleheim GmbH, priority 1991, dated 1998).

Series [1] deals with COS-7 cells. Briefly: Induction of TRE-sensor-DNA (luciferase) in transiently transfected pretest cells, COS-7. Conditions: for induction of pADneo(3TRE)BGluci / induction of pBHluc1.3 by TPA or forskolin: 10 ng TPA/ml or 20 μM forskolin, 18 h. The procedure:
(§1) Approximately 1×10^7 cells per transfection were detached from the surface of the culture dish using trypsin and centrifuged for 5 minutes at 1200 rpm at ambient temperature (Heraeus Minifuge), washed once with 5 ml of serum-free medium, centrifuged for 5 minutes at 1200 rpm and suspended in 1 ml of serum-free medium. Then the cells were mixed with 250 μg/ml DEAE-dextrane, 5 μg plasmid DNA and 50 μg/ml chloroquin, incubated for 30 minutes at 37° C., washed once with medium containing no FCS and incubated overnight at 37° C. with 10 ml of fresh serum-containing medium. Then the medium was changed and after 4 hours the cells were induced, either with 10 ng TPA/ml medium or with 20 μM forskolin. […] The cells were lysed by the addition of 100 μl lysing buffer (1% Triton X-100, 25 mM glycylglycine pH 7.8, 15 mM MgSO4, 4 mM EDTA and 1 mM […]), the lysate was centrifuged for 5 minutes and the supernatant was transferred into a fresh test tube. […] The measuring time for light emission was 10 seconds.
(§2) The cell lines A549, HeLa and COS-7 were transiently transfected as described above by the addition of plasmid pBHluc1.3 and induced by the addition of TPA. Cells which were only transfected but not induced were used as a negative control.
(§3) The cell lines A549, HeLa and COS-7 were transiently transfected by the addition of plasmid pADneo(3TRE)BGluci and induced by the addition of TPA or forskolin. Once again, cells which were only transfected but not induced were used as a negative control.
(§4) The cell lines COS-7 and A549 were transiently transfected by the addition of plasmid pADneo(3×TREd16)BGluci, pADneo(3×TREd21)BGluci, pADneo(3×TREd24)BGluci, pADneo(3×TREd34)BGluci, pADneo(6×TREd16)BGluci, pADneo(6×TREd21)BGluci, pADneo(6×TREd24)BGluci or pADneo(6×TREd34)BGluci and induced by the addition of TPA or forskolin.

For series [2], the target named is T1, human dopamine D1-receptor (Homo sapiens, UniProt P21728). Briefly: Induction of pBHluc1.3 (TRE) via dopamine-D1-receptor in co-transfected COS-7 cells. It is filed as cell-based. Particulars: 10 ng/ml TPA or 1 μM apomorphine, 18 h.
Series [3] concerns the target human muscarinic M3-receptor (Homo sapiens, UniProt P20309). The class given is cell-based.
The target of series [4] is T2, human neurokinin 2-receptor (Homo sapiens, UniProt P21452).
T2 sequence (P21452 1-398): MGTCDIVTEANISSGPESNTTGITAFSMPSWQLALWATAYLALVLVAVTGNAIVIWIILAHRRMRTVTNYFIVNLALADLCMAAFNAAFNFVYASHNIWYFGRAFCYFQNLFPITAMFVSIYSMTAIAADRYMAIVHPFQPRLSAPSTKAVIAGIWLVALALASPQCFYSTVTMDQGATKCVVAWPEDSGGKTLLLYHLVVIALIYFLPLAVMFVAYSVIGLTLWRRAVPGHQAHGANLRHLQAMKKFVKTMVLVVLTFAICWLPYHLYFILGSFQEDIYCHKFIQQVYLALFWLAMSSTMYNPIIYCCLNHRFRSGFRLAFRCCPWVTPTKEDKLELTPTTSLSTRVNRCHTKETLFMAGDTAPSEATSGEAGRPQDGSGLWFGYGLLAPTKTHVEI
Briefly: Luciferase activity in NK2-test cell line A20/NK2-122. The procedure:
(§5) 15-20 days after transfection, individual cell clones were transferred into 96-well microtitre plates and further cultivated. […] Approximately 40,000 cells in each clone were sown, in a procedure repeated 6 times, in 200 μl per well of a light-impervious 96-well microtitre plate coated with tissue culture (Microlite™, Dynatech Laboratories) and incubated overnight at 37° C. Three mixtures were treated with 10 ng TPA/ml and incubated for a further 8 hours. Then the medium was removed and the cells were washed twice with PBS.
This Example illustrates the preparation of a test cell line for the human neurokinin 2 (NK2)-receptor which is coupled to the phospholipase C-signal transduction pathway. This test cell line makes it possible, by measurement of the luciferase activity, to identify substances which modulate the intracellular IP3 /DAG concentrations, depending on the receptor.
(§6) The pretest cell line A20 was transfected, as described under a), by electroporation with the plasmid pAHyg-NK2, which had previously been linearised with BglII. From the day after transfection onwards, the cells were grown in selection medium, as used for the cell line A20 and additionally enriched with 150 μg/ml hygromycin B (Sigma). Individual clones were tested for inducibility of the luciferase activity as described under a).

The subject of series [5] is HeLa cells. Briefly: Induction of TRE-sensor-DNA (luciferase) in transiently transfected pretest cells, HeLa. Conditions: 18 h; for induction of pADneo(3TRE)BGluci / induction of pBHluc1.3 by TPA or forskolin: 10 ng TPA/ml or 20 μM forskolin. As to the method: as §1, §2, §3
Series [6] concerns A549 cells. Particulars: Voraberger et al., 1991; cited from earlier work.
The test system of series [7] is A549 cells. Description: Induction of TRE-sensor-DNA (luciferase) in transiently transfected pretest cells, A549. Conditions: for induction of pADneo(3TRE)BGluci: 10 ng TPA/ml or 20 μM forskolin, 18 h. The procedure:
as §1, §2, §3, §4

For series [8], the system named is cell line CHO C6-13. Briefly: Luciferase expression in CRE-pretest cell line CHO C6-13. Particulars: for change in luciferase expression/activity: 3 hours treatment, FIG. 33. The procedure: The transfection by electroporation was carried out as follows: after removal of the medium the cells were detached from the surface by means of a trypsin/PBS solution, suspended in medium and pelleted for 5 minutes at 250×g. The cells were washed in HBS (10 mM HEPES pH 7.4, 150 mM NaCl) and pelleted by centrifuging. The cells were suspended in HBS in a density of 1×10^7 cells/ml. 0.8 ml of cell suspension were mixed with 20 μg of DNA of the plasmid pADneo2-C6-BGL linearised with ScaI and transferred into an electroporation dish. […] After the electroporation the cells were diluted in the medium mentioned above, 20,000 cells per 90 mm culture dish was sown and incubated overnight at 37° C.
Two batches of each were treated with 20 μM forskolin and incubated for a further 5 hours at 37° C. Then the medium was removed from all the cells and the cells were washed with PBS.
Cells of the cell line CHO C6-13 were treated for 3 hours with various substances which alter the intracellular concentration of cAMP or IP3 /DAG or simulate a change in concentration, and also treated with receptor-specific agonists which influence the above-mentioned signal transduction mechanisms.

The test system of series [9] is cell line A20. Description: Luciferase induction in stable TRE-pretest cell line A20 (A549, pBHluc1.3). As to the method:
In order to produce a stable (pre-)test cell line for substances which influence the expression of the luciferase gene by direct or receptor-mediated modulation of the IP3 /DAC-signal transduction pathway, A549 cells were simultaneously transfected with the plasmid pBHluc1.3 and the selection plasmid pRSVneo by electroporation as follows: after removal of the medium the cells were detached from the surface by means of a trypsin/PBS solution, suspended in medium and sedimented for 5 minutes at 250×g. […] 0.8 ml of cell suspension were combined with 20 μg of pBHluc1.3 and 2 μg of pRSVneo. Both plasmids had previously been linearised with BamHI.
as §5, §6

The target of series [10] is human 5HT2-receptor (Homo sapiens, UniProt P28223). Briefly: Induction of pADneo2-C6-BGL (CRE) via 5-HT2-receptor in co-transfected COS-7 cells. Particulars: 20 μM forskolin or 10 μ α-methylserotonin-maleate. It is filed as cell-based. As to the method:
Induction was carried out with i) 20 μM forskolin (Sigma P8139), ii) 10 μα-methylserotonin-maleate (RBI M-110), and iii) 10 μα-methylserotonin-maleate and 10 μM ketanserin-tartrate (RBI S-006). […] It follows, from the above results, that, depending on 5-HT2 -receptors, only regulation elements which respond to IP3 /DAG (TRE), but not regulation elements which respond to cAMP (CRE) are selectively activated.

Series [11] addresses T1, human dopamine D1-receptor. Briefly: Induction of pADneo2-C6-BGL (CRE) via dopamine-D1-receptor in co-transfected COS-7 cells. Particulars: COS-7; 20 μM forskolin or 1 μM apomorphine, 18 h.
Series [12] concerns CHO C12-32. Briefly: Luciferase inducibility in CRE-pretest cell clone C12-32. It is filed as cell-based, Chinese hamster. Particulars: 20 μM forskolin, 5 hours. As to the method: (This plasmid differs from the pADneo2-C6-BGL described in Example 1) in that the section containing the 6 CRE-elements is duplicated and the β-globin promotor is replaced by the TK-promotor (see Example 1 b)). In order to do this the SalI-HindIII-β-globin-promotor-fragment was replaced by a similarly cut fragment containing the TK-promotor (McKnight, 1980)).
The transfection and testing of the cell clones were carried out as in Example 7 a).

On to `CCCCCCCCCCCCCC(=O)O[C@@H]1[C@@H](C)[C@@]2(O)[C@@H](C=C(CO)C[C@]3(O)C(=O)C(C)=C[C@@H]23)[C@@H]2C(C)(C)[C@]12OC(C)=O` [TPA, phorbol-12-myristat-13-acetate], for which the “induction of pADneo(6×TREdx)BGluci depending on spacing of TRE-elements” value in [1] (COS-7, 10 ng TPA/ml) is “higher when the spacing of the TRE-elements is smaller”; in series [7] (A549, 10 ng TPA/ml), “higher when the spacing of the TRE-elements is smaller”. Besides, the “induction of pADneo(nTREdx)BGluci, 6 versus 3 TRE-elements” value is “the induction with TPA for the constructions with 6 TRE-elements is greater than for the constructions with 3 TRE-elements” in series [1] (COS-7, 10 ng TPA/ml) and “the induction with TPA for the constructions with 6 TRE-elements is greater than for the constructions with 3 TRE-elements” in series [7] (A549, 10 ng TPA/ml). The “induction of pADneo(3TRE)BGluci” value in series [1] (COS-7), in [5] and in series [7] (A549) was “can be induced in the tested cells by TPA” in each case. In addition, the “induction of pBHluc1.3 by TPA or forskolin” value in [1] (COS-7) and in [5] was “could also be induced by TPA” throughout. Also, the fold induction at 0.01 µg/mL in [1] (Primates, COS-7, 18 h, read-out: induction of pBHluc1.3 (luciferase)) is over 10; in series [5] (Homo sapiens, read-out: induction of pBHluc1.3 (luciferase)), over 10; in series [7] (Homo sapiens, A549, 18 h, read-out: induction of pBHluc1.3 (luciferase)), over 10; in series [9] (Homo sapiens, A549, 8 h, read-out: inducibility of luciferase activity, clone A20), 15 to 20. The “induction of luciferase expression (TRE)” value in series [2] is on record as “induced by TPA”. Besides, the “induction of luciferase expression” value in [3] was “induced both by TPA and by carbachol”. The “maximum induction of luciferase activity by TPA” value in series [4] (A20/NK2-122, depending on the dose) was at most 18 times; in series [9] (A20, depending on the dose), at most 18 times. Besides, the “induction of 1.3 kb ICAM-1 fragment / pBHluc1.3” value in [6] is recorded as “can be induced by TPA”. Moreover, the “change in luciferase expression/activity” value in series [8] is “did not bring about any significant change in the luciferase activity”.
As to `C=C[C@@]1(C)CC(=O)[C@]2(O)[C@@]3(C)[C@@H](O)CCC(C)(C)[C@@H]3[C@H](O)[C@H](OC(C)=O)[C@@]2(C)O1` [forskolin], the “induction of luciferase expression (CRE)” value is “induced by forskolin” in [10]; “induced by forskolin and by apomorphine” in series [11]. In addition, the “induction of pADneo(3TRE)BGluci” value in series [1] (COS-7), in series [5] and in series [7] (A549) was “not by forskolin” in each case. Besides, the “induction of pBHluc1.3 by TPA or forskolin” value in series [1] (COS-7) and in [5] was “not by forskolin” throughout. For the same compound, the “induction of pADneo(nTREdx)BGluci by forskolin” value in series [1] (COS-7, 20 μM forskolin) is given as “none of the constructions can be induced with forskolin”; in series [7] (A549, 20 μM forskolin) it was “none of the constructions can be induced with forskolin”. The “induction of luciferase activity by forskolin” value in series [4] (A20/NK2-122) and in [9] (A20) was “did not result in any induction of luciferase activity” each time. Further, the “inducibility of luciferase by forskolin, clone C12-32” value in series [12] was “very high inducibility”. Moreover, the “induction of 1.3 kb ICAM-1 fragment / pBHluc1.3” value in series [6] is reported as “cannot be activated by forskolin; also recorded: cannot be induced by forskolin”. Also, the “inducibility of luciferase by forskolin, clone C6-13” value in series [8] (20 μM forskolin, 5 hours) was “very high inducibility”. In addition, the “change in luciferase expression/activity” value in [8] is “increased”. Besides, the “luciferase induction at concentrations higher than 20 μM (attributed to toxic effects or excessively high cAMP level)” value in series [8] (> 20 μM forskolin) is “drop in luciferase induction at even higher concentrations”. Further, the EC100 in series [8] (Cricetulus griseus, read-out: concentration of maximum induction of the luciferase reporter gene) was determined as 20 µM. Further, the “time up to which induction does not change” value in series [8] (after forskolin stimulation) is 4 h. Moreover, the “time after stimulation at which increased luciferase activity can be detected” value in series [8] (forskolin, FIG. 35A) was found to be 60 min. Further, in series [8] (forskolin, FIG. 35A), the “time to total induction of luciferase expression” value worked out at 2.5 h. In addition, in series [8] (forskolin, FIG. 35B), the “dependency of ED50 levels on duration of treatment” value is “virtually unaffected”.
